Laboratory results reported in patent US20260130395A1, “Water Dispersible Botanical Compositions” (Aquila Black Limited, priority 2021, published 2026).

How the values were obtained:
[1] = Stability of cannabinoid compounds and Vitamin E components in Beverage 2 (AB Red) by LCMSMS; type: physicochemical; conditions: stored at 21-25° C.
[2] = Stability of cannabinoid entourage and Vitamin E components of the powder concentrate by LCMSMS; type: physicochemical; conditions: powder stored at 21-25° C.
Experimental: At each time period, 0.05 g of powder was dissolved in 10 ml-15 of ethanol, diluted to fall within the analytical range, and injected into the LCMSMS for analysis.

CCCCCc1cc(O)c2c(c1)OC1(C)CCC3C1C2C3(C)C (stereo not drawn) [CBL, cannabicyclol]
Stability of Plant-Derived Cannabinoid Compounds in AB Red ([1]; 29 days): 0.49 µg/mL | Stability of Plant-Derived Cannabinoid Compounds in AB Red ([1]; 30 days): 0.51 µg/mL | Stability of Plant-Derived Cannabinoid Compounds in AB Red ([1]; 60 days): 0.50 µg/mL | Stability of Plant-Derived Cannabinoid Compounds in AB Red ([1]; 90 days): 0.49 µg/mL | Stability of Plant-Derived Cannabinoid Compounds in AB Red ([1]; 120 days): 0.50 µg/mL | Stability of Plant-Derived Cannabinoid Compounds in AB Red ([1]; 150 days): 0.49 µg/mL | Stability of Plant-Derived Cannabinoid Compounds in AB Red ([1]; 180 days): 0.50 µg/mL | Stability of Plant-Derived Cannabinoid Compounds in AB Red ([1]; 210 days): 0.49 µg/mL | Stability of Plant-Derived Cannabinoid Compounds in AB Red ([1]; 240 days): 0.49 µg/mL | Stability of Plant-Derived Cannabinoid Compounds in AB Red ([1]; 270 days): 0.49 µg/mL | Stability of Plant-Derived Cannabinoid Compounds in AB Red ([1]; 300 days): 0.50 µg/mL | Stability of Plant-Derived Cannabinoid Compounds in AB Red ([1]; 330 days): 0.50 µg/mL | Stability of Plant-Derived Cannabinoid Compounds in AB Red ([1]; 360 days): 0.49 µg/mL | Stability of Plant-Derived Cannabinoid Compounds in AB Red ([1]; 390 days): 0.49 µg/mL | Stability of Plant-Derived Cannabinoid Compounds in AB Red ([1]; 420 days): 0.48 µg/mL | Stability of Plant-Derived Cannabinoid Compounds in AB Red ([1]; 450 days): 0.49 µg/mL | Stability of Plant-Derived Cannabinoid Compounds in AB Red ([1]; 480 days): 0.48 µg/mL | Stability of Plant-Derived Cannabinoid Compounds in AB Red ([1]; 510 days): 0.47 µg/mL | Stability of Plant-Derived Cannabinoid Compounds in AB Red ([1]; 540 days): 0.47 µg/mL | Stability of Plant-Derived Cannabinoid Compounds in AB Red ([1]; 570 days): 0.47 µg/mL | Stability of Plant-Derived Cannabinoid Compounds in Powder Concentrate ([2]; 0 days): 0.050 mg/g powder | Stability of Plant-Derived Cannabinoid Compounds in Powder Concentrate ([2]; 1 days): 0.051 mg/g powder | Stability of Plant-Derived Cannabinoid Compounds in Powder Concentrate ([2]; 2 days): 0.049 mg/g powder | Stability of Plant-Derived Cannabinoid Compounds in Powder Concentrate ([2]; 3 days): 0.050 mg/g powder | Stability of Plant-Derived Cannabinoid Compounds in Powder Concentrate ([2]; 5 days): 0.052 mg/g powder | Stability of Plant-Derived Cannabinoid Compounds in Powder Concentrate ([2]; 8 days): 0.050 mg/g powder | Stability of Plant-Derived Cannabinoid Compounds in Powder Concentrate ([2]; 9 days): 0.050 mg/g powder | Stability of Plant-Derived Cannabinoid Compounds in Powder Concentrate ([2]; 10 days): 0.050 mg/g powder | Stability of Plant-Derived Cannabinoid Compounds in Powder Concentrate ([2]; 11 days): 0.052 mg/g powder | Stability of Plant-Derived Cannabinoid Compounds in Powder Concentrate ([2]; 12 days): 0.052 mg/g powder | Stability of Plant-Derived Cannabinoid Compounds in Powder Concentrate ([2]; 15 days): 0.048 mg/g powder | Stability of Plant-Derived Cannabinoid Compounds in Powder Concentrate ([2]; 16 days): 0.049 mg/g powder | Stability of Plant-Derived Cannabinoid Compounds in Powder Concentrate ([2]; 17 days): 0.049 mg/g powder | Stability of Plant-Derived Cannabinoid Compounds in Powder Concentrate ([2]; 18 days): 0.052 mg/g powder | Stability of Plant-Derived Cannabinoid Compounds in Powder Concentrate ([2]; 19 days): 0.052 mg/g powder | Stability of Plant-Derived Cannabinoid Compounds in Powder Concentrate ([2]; 22 days): 0.051 mg/g powder | Stability of Plant-Derived Cannabinoid Compounds in Powder Concentrate ([2]; 23 days): 0.051 mg/g powder | Stability of Plant-Derived Cannabinoid Compounds in Powder Concentrate ([2]; 24 days): 0.050 mg/g powder | Stability of Plant-Derived Cannabinoid Compounds in Powder Concentrate ([2]; 25 days): 0.050 mg/g powder | Stability of Plant-Derived Cannabinoid Compounds in Powder Concentrate ([2]; 26 days): 0.051 mg/g powder | Stability of Plant-Derived Cannabinoid Compounds in Powder Concentrate ([2]; 29 days): 0.048 mg/g powder | Stability of Plant-Derived Cannabinoid Compounds in Powder Concentrate ([2]; 30 days): 0.051 mg/g powder | Stability of Plant-Derived Cannabinoid Compounds in Powder Concentrate ([2]; 60 days): 0.050 mg/g powder | Stability of Plant-Derived Cannabinoid Compounds in Powder Concentrate ([2]; 90 days): 0.050 mg/g powder | Stability of Plant-Derived Cannabinoid Compounds in Powder Concentrate ([2]; 120 days): 0.048 mg/g powder | Stability of Plant-Derived Cannabinoid Compounds in Powder Concentrate ([2]; 150 days): 0.050 mg/g powder | Stability of Plant-Derived Cannabinoid Compounds in Powder Concentrate ([2]; 180 days): 0.049 mg/g powder | Stability of Plant-Derived Cannabinoid Compounds in Powder Concentrate ([2]; 210 days): 0.052 mg/g powder | Stability of Plant-Derived Cannabinoid Compounds in Powder Concentrate ([2]; 240 days): 0.049 mg/g powder | Stability of Plant-Derived Cannabinoid Compounds in Powder Concentrate ([2]; 270 days): 0.051 mg/g powder | Stability of Plant-Derived Cannabinoid Compounds in Powder Concentrate ([2]; 300 days): 0.050 mg/g powder | Stability of Plant-Derived Cannabinoid Compounds in Powder Concentrate ([2]; 330 days): 0.049 mg/g powder | Stability of Plant-Derived Cannabinoid Compounds in Powder Concentrate ([2]; 360 days): 0.050 mg/g powder | Stability of Plant-Derived Cannabinoid Compounds in Powder Concentrate ([2]; 390 days): 0.052 mg/g powder | Stability of Plant-Derived Cannabinoid Compounds in Powder Concentrate ([2]; 420 days): 0.050 mg/g powder | Stability of Plant-Derived Cannabinoid Compounds in Powder Concentrate ([2]; 450 days): 0.052 mg/g powder | Stability of Plant-Derived Cannabinoid Compounds in Powder Concentrate ([2]; 480 days): 0.051 mg/g powder | Stability of Plant-Derived Cannabinoid Compounds in Powder Concentrate ([2]; 510 days): 0.050 mg/g powder | Stability of Plant-Derived Cannabinoid Compounds in Powder Concentrate ([2]; 540 days): 0.048 mg/g powder | Stability of Plant-Derived Cannabinoid Compounds in Powder Concentrate ([2]; 570 days): 0.050 mg/g powder
